Test results reported in PMC12069643, “Structural insights into the selective recognition of RF-amide peptides by neuropeptide FF receptor 2” (EMBO Reports, 2025).

Assays:
Test in all cases: GloSensor forskolin-stimulated cAMP assay, NPFFR2 mutants
Assay type in all cases: cell-based
[1] = target: T1, NPFFR2 mutants (Homo sapiens, UniProt Q9Y5X5, D207A); conditions: NPFFR2 D1052.64A, HEK293T, three independent experiments
T1 construct: expressed in transfected cells; host or cells: HEK293T (pcDNA3.1 NPFFR2 mutants)
Text: (§1) Figure 2 Interaction of hNPSF with NPFFR2. (A) Residues participating in the interactions between hNPSF and NPFFR2 in the transmembrane (TM) binding pocket are shown as sticks. Dashed lines indicate polar interactions and hydrogen bonds between residues. Zoomed-in views highlighting interactions of the C-terminal segment (residues −1 to −4, PQRF), middle segment (residues −5 to −8, FLFQ), and the N-terminal segment (residues −9 to −11, SQA) of hNPSF are enclosed in red, blue, and yellow boxes, respectively. (B) NPFFR2 residues interacting with hNPSF were mutated to alanine, and the impact of each mutation on the EC50 value (ΔpEC50) was investigated using a forskolin-stimulated cAMP assay, after confirming surface expression of each mutant by an ELISA-based surface expression assay (Appendix Fig. S5). Three independent experiments (with technical triplicates) were conducted for each mutant. The bar graphs represent the mean of ΔpEC50 values from each experiment, with error bars indicating SEM. Statistical analyses were performed using ordinary one-way ANOVA followed by Dunnett’s test, comparing to the wild-type response. ns (not significant, P > 0.05); *P < 0.05; **P < 0.01; ***P < 0.001. Source data are available online for this figure.
(§2) HEK293T cells were seeded at a density of 6 × 10^5 cells per well in a six-well cell culture plate (SPL) and co-transfected with expression plasmids encoding GloSensor™ and each NPFFR construct, using 1 µg to 4 µg of DNA per well according to the Lipofectamine™ 2000 Transfection Reagent (Invitrogen) protocol. After 48 h of incubation under standard conditions (37 °C, 5% CO2), the cells were detached using Accutase solution (Sigma-Aldrich) and washed with PBS. The cells were then pelleted by centrifugation, resuspended in CO2-independent medium (Gibco) supplemented with Firefly D-Luciferin (0.5 mg/ml, NanoLight), and distributed into a 96-well white plate (SPL). After a 2-hour incubation, serially diluted ligands and 0.5 μM forskolin were added to each well to detect ligand-induced signaling. Luminescence signals were measured using a Mithras LB940 instrument (Berthold) with a measurement time of 1 s per well.
(§3) Data from the GloSensor^TM cAMP signaling assays were analyzed using GraphPad Prism with a three-parameter logistic model to fit concentration-response curves for both wild-type (WT) and mutant receptors. Mutant expression levels and DNA amounts were adjusted to match WT conditions. ΔpEC50 values were calculated by subtracting the log EC50 of the WT receptor from that of each mutant. Results are presented as mean ± SEM from three independent biological replicates, each performed in duplicate or more. Error bars represent the SEM. Statistical significance was assessed using one-way ANOVA, followed by Dunnett’s tests comparisons to the WT receptor. Significance levels were reported as follows: ns (not significant, P > 0.05); *P < 0.05; **P < 0.01; ***P < 0.001.
(§4) Appendix Figure S5. GloSensorTM cAMP assays of mutants and wild-type NPFFR2.
(§5) The dose-response of cAMP assay data for each mutant (red) presented in Fig. 2B are compared against the wild-type NPFFR2 (blue). Each experiment was conducted after adjusting the mutant's expression level to that of the wild-type NPFFR2 (Appendix Fig. S3), and pcDNA3.1 was used to match the total amount of DNA transfected. Data points represent mean values from three independent experiments (each with technical triplicate), with error bars indicating SEM. Raw data were normalized to the vehicle -treated (0%) and 0.5 μM forskolin-treated (100%) responses.
(§6) (% of forskolin stimulation) […]

[2] = target: T2, NPFFR2 mutants (Homo sapiens, UniProt Q9Y5X5, Y417A); conditions: NPFFR2 Y3157.35A, HEK293T, three independent experiments
T2 construct: expressed in transfected cells; host or cells: HEK293T (pcDNA3.1 NPFFR2 mutants)
Text: as §1, §2, §3, §4, §5, §6

[3] = target: T3, NPFFR2 mutants (Homo sapiens, UniProt Q9Y5X5, Y321A); conditions: NPFFR2 Y2195.38A, HEK293T, three independent experiments
T3 construct: expressed in transfected cells; host or cells: HEK293T (pcDNA3.1 NPFFR2 mutants)
Text: as §1, §2, §3, §4, §5, §6

[4] = target: T4, NPFFR2 mutants (Homo sapiens, UniProt Q9Y5X5, N413A); conditions: NPFFR2 N3117.31A, HEK293T, three independent experiments
T4 construct: expressed in transfected cells; host or cells: HEK293T (pcDNA3.1 NPFFR2 mutants)
Text: as §1, §2, §3, §4, §5, §6

[5] = target: T5, NPFFR2 mutants (Homo sapiens, UniProt Q9Y5X5, I414A); conditions: NPFFR2 I3127.32A, HEK293T, three independent experiments
T5 construct: expressed in transfected cells; host or cells: HEK293T (pcDNA3.1 NPFFR2 mutants)
Text: as §1, §2, §3, §4, §5, §6

[6] = target: T6, NPFFR2 mutants (Homo sapiens, UniProt Q9Y5X5, L141A); conditions: NPFFR2 L39NtA, HEK293T, three independent experiments
T6 construct: expressed in transfected cells; host or cells: HEK293T (pcDNA3.1 NPFFR2 mutants)
Text: as §1, §2, §3, §4, §5, §6

[7] = target: T7, NPFFR2 mutants (Homo sapiens, UniProt Q9Y5X5, V305A); conditions: NPFFR2 V203ECL2A, HEK293T, three independent experiments
T7 construct: expressed in transfected cells; host or cells: HEK293T (pcDNA3.1 NPFFR2 mutants)
Text: as §1, §2, §3, §4, §5, §6

[8] = target: T8, NPFFR2 mutants (Homo sapiens, UniProt Q9Y5X5, R318A); conditions: NPFFR2 R2165.35A, HEK293T, three independent experiments
T8 construct: expressed in transfected cells; host or cells: HEK293T (pcDNA3.1 NPFFR2 mutants)
Text: as §1, §2, §3, §4, §5, §6

[9] = target: T9, NPFFR2 mutants (Homo sapiens, UniProt Q9Y5X5, E289A); conditions: NPFFR2 E187ECL2A, HEK293T, three independent experiments
T9 construct: expressed in transfected cells; host or cells: HEK293T (pcDNA3.1 NPFFR2 mutants)
Text: as §1, §2, §3, §4, §5, §6

[10] = target: T10, NPFFR2 mutants (Homo sapiens, UniProt Q9Y5X5, F425A); conditions: NPFFR2 F3237.43A, HEK293T, three independent experiments
T10 construct: expressed in transfected cells; host or cells: HEK293T (pcDNA3.1 NPFFR2 mutants)
Text: as §1, §2, §3, §4, §5, §6

[11] = target: T11, NPFFR2 mutants (Homo sapiens, UniProt Q9Y5X5, W213A); conditions: NPFFR2 W11123.50A, HEK293T, three independent experiments
T11 construct: expressed in transfected cells; host or cells: HEK293T (pcDNA3.1 NPFFR2 mutants)
Text: as §1, §2, §3, §4, §5, §6

[12] = target: T12, NPFFR2 mutants (Homo sapiens, UniProt Q9Y5X5, W393A); conditions: NPFFR2 W2916.52A, HEK293T, three independent experiments
T12 construct: expressed in transfected cells; host or cells: HEK293T (pcDNA3.1 NPFFR2 mutants)
Text: as §1, §2, §3, §4, §5, §6

T9 sequence (Q9Y5X5 103-522 E289A): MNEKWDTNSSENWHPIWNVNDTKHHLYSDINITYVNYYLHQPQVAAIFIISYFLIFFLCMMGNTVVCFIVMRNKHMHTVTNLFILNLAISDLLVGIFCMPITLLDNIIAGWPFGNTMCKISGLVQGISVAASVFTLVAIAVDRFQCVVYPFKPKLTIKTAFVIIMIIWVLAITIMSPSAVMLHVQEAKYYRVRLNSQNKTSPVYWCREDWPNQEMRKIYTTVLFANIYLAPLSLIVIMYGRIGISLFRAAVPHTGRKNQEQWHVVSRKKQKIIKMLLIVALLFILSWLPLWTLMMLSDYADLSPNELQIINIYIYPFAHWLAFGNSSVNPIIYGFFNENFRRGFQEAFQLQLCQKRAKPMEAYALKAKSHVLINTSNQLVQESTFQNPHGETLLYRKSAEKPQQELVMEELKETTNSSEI
T5 sequence (Q9Y5X5 103-522 I414A): as the sequence (Q9Y5X5 103-522 E289A) above, with A187E, I312A counted along it
T3 sequence (Q9Y5X5 103-522 Y321A): as the sequence (Q9Y5X5 103-522 E289A) above, with A187E, Y219A counted along it
T7 sequence (Q9Y5X5 103-522 V305A): as the sequence (Q9Y5X5 103-522 E289A) above, with A187E, V203A counted along it
T10 sequence (Q9Y5X5 103-522 F425A): as the sequence (Q9Y5X5 103-522 E289A) above, with A187E, F323A counted along it
T11 sequence (Q9Y5X5 103-522 W213A): as the sequence (Q9Y5X5 103-522 E289A) above, with W111A, A187E counted along it
T2 sequence (Q9Y5X5 103-522 Y417A): as the sequence (Q9Y5X5 103-522 E289A) above, with A187E, Y315A counted along it
T8 sequence (Q9Y5X5 103-522 R318A): as the sequence (Q9Y5X5 103-522 E289A) above, with A187E, R216A counted along it
T4 sequence (Q9Y5X5 103-522 N413A): as the sequence (Q9Y5X5 103-522 E289A) above, with A187E, N311A counted along it
T6 sequence (Q9Y5X5 103-522 L141A): as the sequence (Q9Y5X5 103-522 E289A) above, with L39A, A187E counted along it
T12 sequence (Q9Y5X5 103-522 W393A): as the sequence (Q9Y5X5 103-522 E289A) above, with A187E, W291A counted along it
T1 sequence (Q9Y5X5 103-522 D207A): as the sequence (Q9Y5X5 103-522 E289A) above, with D105A, A187E counted along it

Emax ([1]; HEK-293T): 69 ± 4% | EC50 [1]: 0.0126 µM | Emax ([2]; HEK-293T): 77 ± 2% | EC50 [2]: 0.126 µM | Emax ([3]; HEK-293T): 72 ± 3% | EC50 [3]: 0.1 µM | Emax ([4]; HEK-293T): 69 ± 8% | EC50 [4]: 1.26 µM | Emax ([5]; HEK-293T): 63 ± 3% | EC50 [5]: 0.01 µM | Emax ([6]; HEK-293T): 70 ± 3% | EC50 [6]: 0.01 µM | Emax ([7]; HEK-293T): 78 ± 3% | EC50 [7]: 0.2 µM | Emax ([8]; HEK-293T): 85 ± 3% | EC50 [8]: 0.01 µM | Emax ([9]; HEK-293T): 75 ± 3% | EC50 [9]: 0.001 µM | Emax ([10]; HEK-293T): 81 ± 3% | EC50 [10]: 0.398 µM | Emax ([11]; HEK-293T): 78 ± 5% | EC50 [11]: 1.26 µM | Emax ([12]; HEK-293T): 80 ± 4% | EC50 [12]: 0.0794 µM
Structure (SMILES): CC(C)C[C@H](NC(=O)[C@H](Cc1ccccc1)NC(=O)[C@H](C)NC(=O)[C@H](CCC(N)=O)NC(=O)[C@@H](N)CO)C(=O)N[C@@H](Cc1ccccc1)C(=O)N[C@@H](CCC(N)=O)C(=O)N1CCC[C@H]1C(=O)N[C@@H](CCC(N)=O)C(=O)N[C@@H](CCCNC(=N)N)C(=O)N[C@@H](Cc1ccccc1)C(N)=O [hNPSF]
